Assay results from patent US11999702B1, “4,5-bis(4-chlorophenyl)-1-hexyl-2-(3,4-dimethoxyphenyl)-1H-imidazole as an antimicrobial compound” (KING FAISAL UNIVERSITY, priority 2023, dated 2024).

Legend:
Assay type in all cases: cell-based
Settings in all cases: after 10, 20, 40 and 60 minutes at all dilutions 1:100, 1:200, 1:400, 1:800
Staphylococcus aureus = assay: Antimicrobial testing by agar dilution, Staphylococcus aureus
Procedure: (§1) The antimicrobial properties of the 4,5-bis(4-chlorophenyl)-1-hexyl-2-(3,4-dimethoxyphenyl)-1H-imidazole (5) were studied by the method of agar dilution. Test solutions of each compound were prepared in concentration of 1% using dimethylformamide as a solvent then they are diluted in physiological solution to obtain the final experimental dilutions 1:100, 1:200, 1:400, 1:800. The effect of these substances were compared with furacillin in a controllable study. The testing microbes used were gram positive bacteria Staphylococcus aureus, gram negative bacteria Escherichia coli, Pseudomonas aeruginosa and Candida albicans fungi were taken. The experiments used for this survey were meat-pentonlu agar (EPA) for cultivation of bacteria and Saburo environment for fungi. Each experiment used 1 ml of test solution on each plate 500 min. Add 2 drops of emulsified with microbes feel. All experimental samples were taken from the agar after 10, 20, 40, 60 minutes in the environment on the basis of Patrk planted. Bacteria were cultivated at a temperature of 37° C. for 1 day and the mushroom was kept in a thermostat for […] at a temperature of 28° C. in the. Then results were checked.

Escherichia coli = assay: Antimicrobial testing by agar dilution, Escherichia coli
Procedure: as §1

Pseudomonas aeruginosa = assay: Antimicrobial testing by agar dilution, Pseudomonas aeruginosa
Procedure: as §1

Candida albicans = assay: Antimicrobial testing by agar dilution, Candida albicans
Procedure: as §1

Measured: inhibition activity

CCCCCCn1c(-c2ccc(OC)c(OC)c2)nc(-c2ccc(Cl)cc2)c1-c1ccc(Cl)cc1 [4,5-bis(4-chlorophenyl)-1-hexyl-2-(3,4-dimethoxyphenyl)-1H-imidazole]
highest inhibition activity: all assays above
